Measured values taken from patent publication US20100029615A1, “BENZIMIDAZOLE DERIVATIVES” (priority 2006, published 2010).
Structures can show the parent of a compound that is named as a salt.

target: T1, SMO (Mus musculus, UniProt P56726); assay: Smoothened (SMO)/Sonic Hedgehog (SHh) Transient Transcriptional Activation Assay (Gli-luciferase reporter in C3H10T1/2 cells); type: cell-based, murine; settings: 2 μM test compound, SHh 250 ng/ml, 20 hrs
T1 construct: endogenous in cells; host or cells: C3H10T1/2 (ATCC #CCL-226)
Procedure, shortened: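 C3H10T1/2 cells transiently transfected with a 10× murine Gli-responsive firefly luciferase reporter plus pEGFP, serum-starved 20 h in 0.5% calf serum, then treated with compounds (2 uM–2 nM final) and 250 ng/ml recombinant human SHh for 20 h at 37 °C. Read-out: Dual-Glo luminescence.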

T1 sequence (P56726 33-793): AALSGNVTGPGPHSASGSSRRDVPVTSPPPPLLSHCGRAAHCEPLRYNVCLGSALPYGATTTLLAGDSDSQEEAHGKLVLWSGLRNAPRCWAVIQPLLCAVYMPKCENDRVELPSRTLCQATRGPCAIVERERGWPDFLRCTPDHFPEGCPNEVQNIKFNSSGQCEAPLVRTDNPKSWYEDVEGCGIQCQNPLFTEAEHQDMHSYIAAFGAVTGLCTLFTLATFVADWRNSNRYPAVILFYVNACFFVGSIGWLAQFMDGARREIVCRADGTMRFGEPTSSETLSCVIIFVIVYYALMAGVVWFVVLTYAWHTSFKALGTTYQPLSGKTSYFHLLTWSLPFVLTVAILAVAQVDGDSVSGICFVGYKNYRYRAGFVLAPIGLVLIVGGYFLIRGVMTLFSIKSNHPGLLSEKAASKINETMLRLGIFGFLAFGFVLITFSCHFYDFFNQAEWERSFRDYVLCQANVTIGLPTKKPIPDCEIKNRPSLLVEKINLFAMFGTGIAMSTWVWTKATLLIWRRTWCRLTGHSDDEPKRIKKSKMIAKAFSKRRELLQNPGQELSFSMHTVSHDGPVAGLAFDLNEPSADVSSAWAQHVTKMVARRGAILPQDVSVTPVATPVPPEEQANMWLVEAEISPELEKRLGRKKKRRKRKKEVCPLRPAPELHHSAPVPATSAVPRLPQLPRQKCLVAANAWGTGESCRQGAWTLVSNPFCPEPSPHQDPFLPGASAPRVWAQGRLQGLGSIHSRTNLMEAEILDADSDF

For `Cl.O=C(NC12CCCC(c3nc4cc(C(F)(F)F)ccc4[nH]3)(C1)C2)c1ccc2c(c1)OCCO2` [Example 258, N-{5-[5-(trifluoromethyl)-1H-benzimidazol-2-yl]bicyclo[3.1.1]hept-1-yl}-2,3-dihydro-1,4-benzodioxine-6-carboxamide HCL], the “SMO CELL % INHIBITION @ 2 μM” value was 99.22%.

same assay, conditions: 2 μM test compound, SHh 250 ng/ml, 20 hrs, HCl, 2 µM

In order of falling “SMO CELL % INHIBITION @ 2 μM” value:
1. COc1cc(OC)cc(C(=O)NC23CCCC(c4nc5cc(C(F)(F)F)ccc5[nH]4)(C2)C3)c1 [Example 260, 3,5-dimethoxy-N-{5-[5-(trifluoromethyl)-1H-benzimidazol-2-yl]bicyclo[3.1.1]hept-1-yl}benzamide HCl]  101.34%
2. O=C(NC12CCCC(c3nc4cc(C(F)(F)F)ccc4[nH]3)(C1)C2)c1cc2c(cn1)OCCO2 [Example 264, N-{5-[5-(trifluoromethyl)-1H-benzimidazol-2-yl]bicyclo[3.1.1]hept-1-yl}-2,3-dihydro[1,4]di-oxino[2,3-c]pyridine-7-carboxamide HCl]  94.31%
3. N#Cc1ccc(NC(=O)NC23CCCC(c4nc5cc(C(F)(F)F)ccc5[nH]4)(C2)C3)cc1 [Example 262, 1-(4-cyanophenyl)-3-{5-[5-(trifluoromethyl)-1H-benzimidazol-2-yl]bicyclo[3.1.1]hept-1-yl}urea HCl]  89%

same assay, conditions: C3H 10T1/2, 2 μM test compound, SHh 250 ng/ml, 20 hrs, read-out: SMO CELL % INHIBITION @ 2 μM

In order of falling inhibition at 2 µM:
1. O=C(NC12CCCC(c3nc4cc(C(F)(F)F)ccc4[nH]3)(C1)C2)c1ccc2c(c1)OCCO2 [Example 257, N-{5-[5-(trifluoromethyl)-1H-benzimidazol-2-yl]bicyclo[3.1.1]hept-1-yl}-2,3-dihydro-1,4-benzodioxine-6-carboxamide]  107%
2. O=C(Nc1ccc(F)c(C(F)(F)F)c1)NC12CCCC(c3nc4ccccc4[nH]3)(C1)C2 [Example 255, 1-(5-(1H-benzo[d]imidaz-ol-2-yl)bicyclo[3.1.1]heptan-1-yl)-3-(4-fluoro-3-(trifluoromethyl)phenyl)urea HCL]  101%
3. O=C(N[C@@H]1CCC[C@H](c2nc3ccccc3[nH]2)C1)c1cc2c(cn1)OCCO2 [Example 253, N-((1R,3S)-3-(1H-benzo[d]imidaz-ol-2-yl)cyclohexyl)-2,3-dihydro-[1,4]dioxino[2,3-c]pyridine-7-carboxamide]  100%
4. COc1cc(OC)cc(C(=O)NC23CCCC(c4nc5cc(C(F)(F)F)ccc5[nH]4)(C2)C3)c1 [Example 259, 3,5-dimethoxy-N-{5-[5-(trifluoromethyl)-1H-benzimidazol-2-yl)bicyclo[3.1.1]hept-1-yl}benzamide]  95.5%
5. N#Cc1ccc(NC(=O)NC23CCCC(c4nc5ccccc5[nH]4)(C2)C3)cc1 [Example 256, 1-(5-(1H-benzo[d]imidaz-ol-2-yl)bicyclo[3.1.1]heptan-1-yl)-3-(4-cyanophenyl)-urea HCl]  94%
6. O=C(NC12CCCC(c3nc4cc(C(F)(F)F)ccc4[nH]3)(C1)C2)c1cc2c(cn1)OCCO2 [Example 263, N-{5-[5-(trifluoromethyl)-1H-benzimidazol-2-yl]bicyclo[3.1.1]hept-1-yl}-2,3-dihydro[1,4]di-oxino[2,3-c]pyridine-7-carboxamide]  91.4%
7. COc1ccc2[nH]c([C@H]3CCC[C@H](NC(=O)c4ccc5c(c4)OCCO5)C3)nc2c1 [Example 254, N-(3-(5-methoxy-1H-benzo[d]imidaz-ol-2-yl)cyclohexyl)-2,3-dihydrobenzo[b] [1,4]dioxine-6-carboxamide HCl]  91%
8. N#Cc1ccc(NC(=O)NC23CCCC(c4nc5cc(C(F)(F)F)ccc5[nH]4)(C2)C3)cc1 [Example 261, 1-(4-cyanophenyl)-3-{5-[5-(trifluoromethyl)-1H-benzimidazol-2-yl]bicyclo[3.1.1]hept-1-yl}urea]  78.8%
9. COc1cc(OC)cc(C(=O)N[C@H]2CCC[C@H](c3nc4ccccc4[nH]3)C2)c1 [Example 252, N-(3-(1H-benzo[d]imidaz-ol-2-yl)cyclohexyl)-3,5-dimethoxybenz-amide HCl]  46%
